Series [1] deals with TZM-bl/H9-HIV-1IIIB. The series is described as follows: Cell-to-Cell HIV-1 transmission, CXCR4-tropic assay. Type of series: cell-based. To be noted: Human immunodeficiency virus 1, TZM-bl.
The subject of series [2] is TZM-bl/Molt-HIV-1ADA. Nature of the series: Cell-to-Cell HIV-1 transmission, CCR5-tropic assay. The following applies: Human immunodeficiency virus 1, TZM-bl. Type of series: cell-based.
A short description of series [3]: Cytotoxicity. To be noted: human, TZM-bl cells. Type of series: cell-based.
Series [4] is described as follows: Cytotoxicity. Type of series: cell-based. To be noted: human, U87-CD4-CXCR4 cells.
For series [5], the system named is VSV-G pseudovirus. Nature of the series: microbe, parasite or virus in culture. It is filed as cell-based.
The nature of series [6]: Solubility of compounds for antiviral/cytotoxicity testing. It is filed as physicochemical. To be noted: assays could not be performed.
Series [7] concerns TZM-bl cells. To be noted: cited from earlier work.
The test system of series [8] is U87-CD4-CXCR4 cells. To be noted: cells of VSV-G assay; cited from earlier work.

Regarding `COc1cnc(-n2cnc(C)n2)c2[nH]cc(C(=O)C(=O)N3CCN(C(=O)c4ccccc4)CC3)c12` [BMS-626529], the half-maximal inhibitory concentration (IC50) in series [1] was 0.02 ± 0.005 µM; in series [2] it was ~0.2 µM.
For `N#Cc1ccc(-c2ccc(C(=O)N[C@@H](CN)c3nc(CO)cs3)[nH]2)cc1` [Compound 4, N-(2-Amino-1-(4-(hydroxymethyl)thiazol-2-yl)ethyl)-5-(4-cyanophenyl)-1H-pyrrole-2-carboxamide], the CC50 at 3 days in series [3] is > 82 µM.
Consider `NC[C@H](NC(=O)c1ccc(-c2cc(F)c(Cl)c(F)c2)[nH]1)c1nc(CCO)cs1` [Compound 9, N-(2-Amino-1-(4-(2-hydroxyethyl)thiazol-2-yl)ethyl)-5-(4-chloro-3,5-difluorophenyl)-1H-pyrrole-2-carboxamide], for which the cytotoxic concentration (CC50) at 72 h in series [3] was 32.8 ± 1 µM.
In the case of `NC[C@H](NC(=O)c1ccc(-c2ccc(C(F)(F)F)cc2F)[nH]1)c1nc(CCO)cs1` [Compound 13, N-(2-Amino-1-(4-(2-hydroxyethyl)thiazol-2-yl)ethyl)-5-(2-fluoro-4-(trifluoromethyl)phenyl)-1H-pyrrole-2-carboxamide], half-maximal cytotoxicity in series [4] (CC50 at 3 days) was put at 33.5 ± 0.6 µM. In series [5], this compound showed a half-maximal inhibitory concentration (IC50) of 11.9 ± 0.5 µM.
With `NC[C@H](NC(=O)c1ccc(-c2ccc(C(F)(F)F)c(F)c2)[nH]1)c1nc(C(=O)O)cs1` [Compound 21, 2-[2-Amino-1-[[5-[3-fluoro-4-(trifluoromethyl)phenyl]-1H-pyrrole-2-carbonyl]amino]ethyl]thiazole-4-carboxylic acid], the “Solubility” value in series [6] is recorded as “Not soluble”.
As for `NC[C@@H](NC(=O)c1ccc(-c2ccc(C(F)(F)F)c(F)c2)[nH]1)c1nc(C(=O)O)cs1` [Compound 22, 2-[2-Amino-1-[[5-[3-fluoro-4-(trifluoromethyl)phenyl]-1H-pyrrole-2-carbonyl]amino]ethyl]thiazole-4-carboxylic acid], the “Solubility” value in series [6] is given as “Not soluble”.
On to `NC[C@@H](NC(=O)c1ccc(-c2ccc(C(F)(F)F)cc2)[nH]1)c1ncc(CO)s1` [NBD-14136], for which the CC50 is 42.4 ± 1 µM in series [7] and 46.3 ± 10.6 µM in series [8].

As usually defined, the IC50 is the midpoint of a concentration-inhibition curve. The low end stands for higher potency, the high end for lower potency. Usually CC50 stands for the concentration giving 50% cytotoxicity.

These data come from paper PMC7856678 (Bioorganic & medicinal chemistry, 2021).
